Results on two molecules are retold here after US11970497B2, “Tricyclic AKR1C3 dependent KARS inhibitors” (Novartis AG, priority 2019, dated 2024).

Assay type in all cases: cell-based
Assay [1] has as its system Hara (NRF2 pathway wild type cell line with low AKR1C3 expression). Description: In vitro cell proliferation assay (CellTiter-Glo), Hara. The conditions noted are these: 72 h; Hara cells, 3 days, CellTiter-Glo, top concentration 10 μM; read-out: HARA Qualified absolute AC50. The gist of the method: (§1)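 Luminescent CellTiter-Glo readout after 3-day compound exposure at 37 °C; 8-point 1:5 series, top 10 μM final. Seeding: 800 cells/well for H460, 2000 cells/well for Hara, RPMI-1640 plus 10% FBS. AC50 and percentage activity derived after normalizing to DMSO (1%) and MG132 (30 μM) controls.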

Another assay relates to EBC-1. Kind of assay: Expanded lung cancer cell line proliferation assay. The conditions noted are these: Homo sapiens; EBC-1, 72 h, average of PrestoBlue and Cell Titer Glo; AKR1C3 92.4 TPM; read-out: Absolute Qualified AC50. The gist of the method: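 Activity was scored after 72 h of compound treatment, with AC50 derived from dose-response curves normalized between 0.3% DMSO and 30 μM MG132 controls. Top final concentration was 1 μM across 8 points, and each value averages PrestoBlue and CellTiter-Glo results.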

Assay [2] deals with H460 (NRF2 pathway mutant cell line with high AKR1C3 expression). Description: In vitro cell proliferation assay (CellTiter-Glo), H460. The conditions noted are these: Homo sapiens, NCI-H460, 72 h; H460 cells, 3 days, CellTiter-Glo, top concentration 10 μM; read-out: H460 Qualified absolute AC50. The gist of the method:
as §1

Each structure is given as a SMILES string. A value given as a limit tells only on which side of the number the result lay.

As for `CN1c2ccc(F)cc2C(=O)CC12CCN(C(=O)NCc1ccc(F)c(NCCO)c1)CC2` [Example 36, 6′-fluoro-N-(4-fluoro-3-((2-hydroxyethyl)amino)benzyl)-1′-methyl-4′-oxo-3′,4′-dihydro-1′H-spiro[piperidine-4,2′-quinoline]-1-carboxamide], the AC50 in assay [1] is 1560 nM; in the assay with EBC-1, > 1000 nM; in assay [2], 78 nM.

With `O=C1CC2(CCN(C(=O)NCc3ccc(F)cc3)CC2)Nc2ccc(F)cc21` [Example 40], the AC50 in assay [1] was 1790 nM; in the assay with EBC-1, > 1000 nM; in assay [2], 83 nM.
